According to ChEMBL document CHEMBL1201862, “PubChem BioAssay data set” (2004):
The source made the active and inactive calls.

How the values were obtained:
[1] = HEp-2 cell cytotoxicity, dose response, cytotoxicity control for RSV inhibitor project, HTS (AID 2410); type: functional; conditions: human respiratory syncytial virus
[2] = target: T1, Voltage-gated N-type calcium channel alpha-1B subunit/Amyloid beta A4 precursor protein-binding family A member 1 (Homo sapiens, UniProt Q00975+Q02410); type: protein assay
[3] = target: T1, Voltage-gated N-type calcium channel alpha-1B subunit/Amyloid beta A4 precursor protein-binding family A member 1; type: protein assay; remark: listed apart in the source
Trypsin = Trypsin (Sus scrofa, UniProt P00761); test: porcine trypsin inhibitors, dose response, selectivity assay for Rce1 protease inhibitor project, biochemical, quenched peptide fluorescence, cherry-pick (AID 488789)
CAAX prenyl protease 2 [4] = target: T2, CAAX prenyl protease 2 (Saccharomyces cerevisiae S288c, UniProt Q03530); type: biochemical
T2 sequence (Q03530 whole entry): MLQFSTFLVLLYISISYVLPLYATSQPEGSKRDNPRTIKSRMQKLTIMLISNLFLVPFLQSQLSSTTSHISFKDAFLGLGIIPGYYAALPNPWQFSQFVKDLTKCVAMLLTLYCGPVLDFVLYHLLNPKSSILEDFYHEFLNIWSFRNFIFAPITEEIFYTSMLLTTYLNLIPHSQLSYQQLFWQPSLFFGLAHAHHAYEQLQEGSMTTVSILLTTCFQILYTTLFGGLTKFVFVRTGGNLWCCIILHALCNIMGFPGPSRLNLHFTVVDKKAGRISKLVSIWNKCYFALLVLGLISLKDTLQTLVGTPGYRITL

CAAX prenyl protease 1 = CAAX prenyl protease 1 (Saccharomyces cerevisiae S288c, UniProt P47154); test: Ste24 protease inhibitors, dose response, biochemical, S. cerevisiae, plate reader, cherry-pick (AID 488815)
CAAX prenyl protease 2 [5] = target: T3, CAAX prenyl protease 2 (Homo sapiens, UniProt Q9Y256); test: human Rce1 protease inhibitors, dose response, biochemical, yeast membranes, quenched-peptide fluorescence, cherry-pick (AID 588849)
T3 sequence (Q9Y256 whole entry): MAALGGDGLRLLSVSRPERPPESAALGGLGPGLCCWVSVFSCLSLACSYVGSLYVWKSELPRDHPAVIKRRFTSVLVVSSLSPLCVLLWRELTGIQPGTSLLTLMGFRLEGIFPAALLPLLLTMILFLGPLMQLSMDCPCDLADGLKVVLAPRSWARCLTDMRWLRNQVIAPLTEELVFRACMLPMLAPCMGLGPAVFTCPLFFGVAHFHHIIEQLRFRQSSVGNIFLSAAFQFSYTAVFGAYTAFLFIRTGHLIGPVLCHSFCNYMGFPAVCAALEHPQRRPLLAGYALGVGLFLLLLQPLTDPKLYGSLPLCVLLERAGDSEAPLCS

Cytochrome P450 2C19 = Cytochrome P450 2C19 (Homo sapiens, UniProt P33261); test: Cytochrome panel assay with activity outcomes. Panel member name: p450-cyp2c19 Compounds with AC50 equal or less than 10 uM are considered active; type: functional; conditions: read-out: AC50
Cytochrome P450 2D6 = Cytochrome P450 2D6 (Homo sapiens, UniProt P10635);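 further: CYP2D6 member of a cytochrome P450 panel assay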
[6] = target: T4, Delta-type opioid receptor (Homo sapiens, UniProt P41143); test: HTS Image-Based Screen for Antagonists of the DOR Receptor. [Related pubchem assays (depositor defined):AID1777, AID1785, AID1786, AID2133]; type: functional
Mu-type opioid receptor = Mu-type opioid receptor (Homo sapiens, UniProt P35372); test: HTS Image-Based Screen for Agonists of the MOR Receptor. [Related pubchem assays (depositor defined):AID1777, AID1785, AID1786, AID2133]; type: functional;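 further: imaging of beta-arrestin GFP recruitment into spots after receptor activation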
[7] = target: T4, Delta-type opioid receptor; test: HTS Image-Based Screen for Agonists of the DOR Receptor. [Related pubchem assays (depositor defined):AID1777, AID1786, AID2133]; type: functional
[8] = target: T5, Kappa-type opioid receptor (Homo sapiens, UniProt P41145); type: functional
Beta-galactosidase = Beta-galactosidase (Escherichia coli, UniProt Q8VNN2); type: functional
[9] = target: T5, Kappa-type opioid receptor; type: functional; remark: listed apart in the source
H9c2 = test: cells; type: functional, cell-based; conditions: Rattus norvegicus, H9c2, Myocardium;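 further: confirmatory concentration-response retest of ultra-high-throughput screening hits for modulation of myocardial damage; cell death induced by hydrogen peroxide oxidative stress; compound pretreatment for 60 min then peroxide exposure for 2 h; potency is for protecting the cells against peroxide damage rather than for killing them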
SUMO-activating enzyme = SUMO-activating enzyme (Homo sapiens, UniProt Q9UBT2); test: SUMOylation inhibitor hit validation, confirmation, SUMOylation inhibitor project, biochemical, AlphaScreen (AID 2018); type: functional
[10] = growth suppression of PTEN-null colon cells, dose response, cell-based, HCT116 PTEN knockout (AID 1047); type: functional;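 further: HCT116 colon tumor cells with PTEN knocked out; cells exposed to compound for 60 hours before readout; potency for loss of cell viability measured by luminescence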
[11] = THP-1 cell cytotoxicity, dose response, cytotoxicity control for non-replicating M. tuberculosis project (AID 489025); type: functional
[12] = Vero E6 cell cytotoxicity, dose response, cytotoxicity control for non-replicating M. tuberculosis project, secondary assay (AID 492998); type: functional, VeroE6; conditions: Vero C1008
[13] = inhibitors of firefly luciferase expression or activity, dose response, H4 neuroglioma cells, luminescence (AID 1990); type: functional, cell-based
[14] = Luminescence Cell-Based Dose Response HTS to Identify Inhibitors of 5'UTR Stem-Loop Driven Prion Protein mRNA Translation in H4 Neuroglioblastoma Cells. [Related pubchem assays: 1827 (Project Summary), 1813 (Primary HTS)]; type: functional
[15] = inhibitors of SNCA 5'UTR-driven reporter translation, confirmation, H4 neuroglioma cells, luminescence (AID 1988); type: functional, cell-based
Cytochrome P450 3A4 = Cytochrome P450 3A4 (Homo sapiens, UniProt P08684);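 further: CYP3A4 tested as one member of a cytochrome P450 panel screen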
[16] = target: T6, Tyrosine-protein phosphatase non-receptor type 22 (Homo sapiens, UniProt Q9Y2R2); test: SAR LYP1 Fluorescent Assay using pCAP substrate for In Vitro dose response studies - Set 2. [Related pubchem assays (depositor defined):AID1779, AID1784, AID2135, AID449727]; type: functional
T6 sequence (Q9Y2R2 whole entry): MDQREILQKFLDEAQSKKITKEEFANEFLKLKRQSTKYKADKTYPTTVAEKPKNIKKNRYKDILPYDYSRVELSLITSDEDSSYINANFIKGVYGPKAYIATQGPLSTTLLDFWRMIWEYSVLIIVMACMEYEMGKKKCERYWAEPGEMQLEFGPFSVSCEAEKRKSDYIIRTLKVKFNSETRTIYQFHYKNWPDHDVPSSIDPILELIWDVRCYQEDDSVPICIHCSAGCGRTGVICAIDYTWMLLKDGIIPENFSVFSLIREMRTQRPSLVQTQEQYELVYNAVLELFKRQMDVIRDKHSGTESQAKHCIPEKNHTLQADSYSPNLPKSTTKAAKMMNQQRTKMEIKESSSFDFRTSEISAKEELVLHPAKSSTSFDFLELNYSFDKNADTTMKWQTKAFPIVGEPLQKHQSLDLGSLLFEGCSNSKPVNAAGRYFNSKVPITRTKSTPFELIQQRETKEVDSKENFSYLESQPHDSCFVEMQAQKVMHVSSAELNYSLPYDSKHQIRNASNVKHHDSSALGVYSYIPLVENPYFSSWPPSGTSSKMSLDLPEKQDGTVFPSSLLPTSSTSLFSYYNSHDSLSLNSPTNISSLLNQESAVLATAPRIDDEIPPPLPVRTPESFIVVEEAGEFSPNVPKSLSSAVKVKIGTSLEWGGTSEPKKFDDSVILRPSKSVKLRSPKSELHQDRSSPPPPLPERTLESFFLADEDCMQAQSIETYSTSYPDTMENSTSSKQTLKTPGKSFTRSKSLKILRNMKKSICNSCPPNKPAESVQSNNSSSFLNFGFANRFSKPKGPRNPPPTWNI

[17] = target: T6, Tyrosine-protein phosphatase non-receptor type 22; test: SAR LYP1 Fluorescent Assay using OMFP substrate for In Vitro dose response studies - Set 3. [Related pubchem assays (depositor defined):AID1779, AID1784, AID2140, AID2686]; type: functional
[18] = target: T7, Tyrosine-protein phosphatase non-receptor type 7 (Homo sapiens, UniProt P35236); test: HePTP (PTPN7) phosphatase inhibitor potency, SAR follow-up, biochemical, set 2 (AID 449736); type: functional
T7 sequence (P35236 whole entry): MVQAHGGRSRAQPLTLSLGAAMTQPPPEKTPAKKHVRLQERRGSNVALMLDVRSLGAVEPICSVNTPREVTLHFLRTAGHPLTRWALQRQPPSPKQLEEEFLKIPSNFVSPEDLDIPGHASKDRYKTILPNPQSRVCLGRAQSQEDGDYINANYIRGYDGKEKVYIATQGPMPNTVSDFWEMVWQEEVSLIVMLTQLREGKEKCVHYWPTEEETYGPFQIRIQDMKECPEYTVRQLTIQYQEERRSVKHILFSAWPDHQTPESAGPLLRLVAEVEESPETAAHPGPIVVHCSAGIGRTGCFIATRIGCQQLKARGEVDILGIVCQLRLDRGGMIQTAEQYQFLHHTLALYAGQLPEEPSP

[19] = target: T6, Tyrosine-protein phosphatase non-receptor type 22; test: LYP (PTPN22) phosphatase inhibitor potency, SAR follow-up, biochemical, pCAP fluorogenic substrate, fluorescence, set 3 (AID 449727); type: functional
[20] = target: T6, Tyrosine-protein phosphatase non-receptor type 22; test: SAR LYP1 Fluorescent Assay using OMFP substrate for In Vitro dose response studies - Set 2. [Related pubchem assays (depositor defined):AID1779, AID1784, AID2140, AID449726, AID488869]; type: functional
[21] = target: DNA dC->dU-editing enzyme APOBEC-3A (Homo sapiens, UniProt P31941); test: APOBEC3A DNA deaminase inhibitors, dose response, biochemical (AID 504722); type: functional
[22] = target: DNA dC->dU-editing enzyme APOBEC-3G (Homo sapiens, UniProt Q9HC16); test: Dose Response confirmation of small molecule APOBEC3G DNA Deaminase Inhibitors via a fluorescence-based single-stranded DNA deaminase assay. [Related pubchem assays (depositor defined):AID493012, AID493028]; type: functional
[23] = target: T8, Rac GTPase-activating protein 1 (Homo sapiens, UniProt Q9H0H5); test: MgcRacGAP GTPase-activating activity inhibitors, confirmation, biochemical, ADP Hunter fluorescence, primary and confirmatory (AID 624330); type: functional
T8 sequence (Q9H0H5 whole entry): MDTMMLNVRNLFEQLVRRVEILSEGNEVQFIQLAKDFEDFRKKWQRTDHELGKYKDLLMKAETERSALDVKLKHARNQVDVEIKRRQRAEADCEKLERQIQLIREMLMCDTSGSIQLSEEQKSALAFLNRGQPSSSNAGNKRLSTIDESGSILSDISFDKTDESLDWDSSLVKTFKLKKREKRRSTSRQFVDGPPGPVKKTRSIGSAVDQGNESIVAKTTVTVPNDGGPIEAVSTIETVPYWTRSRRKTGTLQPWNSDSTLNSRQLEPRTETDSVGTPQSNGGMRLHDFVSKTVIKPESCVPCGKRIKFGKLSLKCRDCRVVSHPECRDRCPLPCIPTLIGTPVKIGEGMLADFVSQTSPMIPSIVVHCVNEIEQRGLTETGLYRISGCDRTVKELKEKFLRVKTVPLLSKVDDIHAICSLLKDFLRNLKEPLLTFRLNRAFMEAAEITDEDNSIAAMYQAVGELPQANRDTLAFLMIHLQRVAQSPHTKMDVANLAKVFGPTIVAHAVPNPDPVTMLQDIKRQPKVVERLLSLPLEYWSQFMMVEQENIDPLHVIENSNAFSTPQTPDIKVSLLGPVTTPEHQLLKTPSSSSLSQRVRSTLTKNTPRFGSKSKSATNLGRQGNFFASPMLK

T4 sequence (P41143 whole entry): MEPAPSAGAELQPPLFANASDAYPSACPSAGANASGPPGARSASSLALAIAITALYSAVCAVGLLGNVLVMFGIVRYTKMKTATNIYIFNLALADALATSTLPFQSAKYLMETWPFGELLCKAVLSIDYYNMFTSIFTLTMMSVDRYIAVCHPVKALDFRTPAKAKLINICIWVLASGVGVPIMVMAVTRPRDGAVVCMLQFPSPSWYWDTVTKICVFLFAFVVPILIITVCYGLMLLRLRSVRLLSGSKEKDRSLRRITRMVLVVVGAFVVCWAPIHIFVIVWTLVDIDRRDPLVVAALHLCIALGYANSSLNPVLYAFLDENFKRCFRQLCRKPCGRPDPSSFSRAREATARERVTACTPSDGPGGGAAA
T1 sequence (Q00975 whole entry): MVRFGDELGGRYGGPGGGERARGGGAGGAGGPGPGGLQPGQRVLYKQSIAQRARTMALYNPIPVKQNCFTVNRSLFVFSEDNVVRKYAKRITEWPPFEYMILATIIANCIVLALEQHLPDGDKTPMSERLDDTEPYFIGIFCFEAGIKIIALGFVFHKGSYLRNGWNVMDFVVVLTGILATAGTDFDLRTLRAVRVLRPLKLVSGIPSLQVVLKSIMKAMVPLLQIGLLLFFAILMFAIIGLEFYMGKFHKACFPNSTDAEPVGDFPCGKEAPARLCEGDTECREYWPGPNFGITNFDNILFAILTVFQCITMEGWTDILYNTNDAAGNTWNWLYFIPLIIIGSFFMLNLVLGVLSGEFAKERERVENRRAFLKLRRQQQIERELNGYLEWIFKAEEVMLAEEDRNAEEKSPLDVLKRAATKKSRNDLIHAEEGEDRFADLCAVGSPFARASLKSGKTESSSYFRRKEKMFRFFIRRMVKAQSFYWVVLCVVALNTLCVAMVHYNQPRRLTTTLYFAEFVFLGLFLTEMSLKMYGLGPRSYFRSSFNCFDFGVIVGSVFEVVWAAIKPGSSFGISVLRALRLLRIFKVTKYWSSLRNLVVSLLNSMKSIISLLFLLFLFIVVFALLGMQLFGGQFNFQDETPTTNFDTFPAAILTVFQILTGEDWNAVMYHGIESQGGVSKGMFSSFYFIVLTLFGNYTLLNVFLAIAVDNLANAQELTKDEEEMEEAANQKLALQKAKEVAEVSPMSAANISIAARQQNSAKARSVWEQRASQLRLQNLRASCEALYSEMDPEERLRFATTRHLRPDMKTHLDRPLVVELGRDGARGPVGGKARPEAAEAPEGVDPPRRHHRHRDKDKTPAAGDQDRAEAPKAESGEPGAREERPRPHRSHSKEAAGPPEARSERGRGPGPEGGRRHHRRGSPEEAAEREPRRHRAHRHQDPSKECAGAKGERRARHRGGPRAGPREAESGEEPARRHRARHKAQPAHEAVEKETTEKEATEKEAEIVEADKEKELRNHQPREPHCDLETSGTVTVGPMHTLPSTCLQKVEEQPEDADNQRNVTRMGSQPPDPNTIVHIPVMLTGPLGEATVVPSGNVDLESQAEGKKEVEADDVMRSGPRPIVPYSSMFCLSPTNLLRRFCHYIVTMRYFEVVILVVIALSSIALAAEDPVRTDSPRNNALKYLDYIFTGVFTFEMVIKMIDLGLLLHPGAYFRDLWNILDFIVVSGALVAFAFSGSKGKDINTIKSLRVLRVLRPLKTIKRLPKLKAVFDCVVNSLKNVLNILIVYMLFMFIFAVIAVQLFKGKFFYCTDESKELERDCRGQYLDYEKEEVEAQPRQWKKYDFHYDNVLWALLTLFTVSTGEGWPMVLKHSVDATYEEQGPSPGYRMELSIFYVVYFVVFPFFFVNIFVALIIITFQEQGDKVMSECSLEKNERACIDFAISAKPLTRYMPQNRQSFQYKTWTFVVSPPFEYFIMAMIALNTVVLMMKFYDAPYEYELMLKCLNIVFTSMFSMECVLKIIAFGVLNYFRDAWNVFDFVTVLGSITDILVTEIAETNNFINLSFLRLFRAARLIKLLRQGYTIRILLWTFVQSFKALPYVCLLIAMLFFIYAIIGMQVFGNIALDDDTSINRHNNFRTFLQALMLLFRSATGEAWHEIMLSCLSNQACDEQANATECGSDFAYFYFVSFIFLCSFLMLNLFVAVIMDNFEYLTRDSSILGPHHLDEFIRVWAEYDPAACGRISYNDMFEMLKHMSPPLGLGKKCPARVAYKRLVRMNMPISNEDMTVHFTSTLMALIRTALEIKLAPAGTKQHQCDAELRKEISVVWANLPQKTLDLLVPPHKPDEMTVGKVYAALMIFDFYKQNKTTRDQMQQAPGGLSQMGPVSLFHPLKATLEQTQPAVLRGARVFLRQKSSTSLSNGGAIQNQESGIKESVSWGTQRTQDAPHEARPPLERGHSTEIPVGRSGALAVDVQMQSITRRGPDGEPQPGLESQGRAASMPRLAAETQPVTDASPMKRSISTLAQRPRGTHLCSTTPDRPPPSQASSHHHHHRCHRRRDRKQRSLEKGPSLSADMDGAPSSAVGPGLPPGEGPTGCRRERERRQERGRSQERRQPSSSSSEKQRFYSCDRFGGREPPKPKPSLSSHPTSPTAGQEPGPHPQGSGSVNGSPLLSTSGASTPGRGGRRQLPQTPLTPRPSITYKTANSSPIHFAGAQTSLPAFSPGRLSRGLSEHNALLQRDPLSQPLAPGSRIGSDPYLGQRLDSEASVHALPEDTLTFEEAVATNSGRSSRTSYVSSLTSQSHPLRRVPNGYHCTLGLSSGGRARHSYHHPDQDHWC
T1 sequence (Q02410 whole entry): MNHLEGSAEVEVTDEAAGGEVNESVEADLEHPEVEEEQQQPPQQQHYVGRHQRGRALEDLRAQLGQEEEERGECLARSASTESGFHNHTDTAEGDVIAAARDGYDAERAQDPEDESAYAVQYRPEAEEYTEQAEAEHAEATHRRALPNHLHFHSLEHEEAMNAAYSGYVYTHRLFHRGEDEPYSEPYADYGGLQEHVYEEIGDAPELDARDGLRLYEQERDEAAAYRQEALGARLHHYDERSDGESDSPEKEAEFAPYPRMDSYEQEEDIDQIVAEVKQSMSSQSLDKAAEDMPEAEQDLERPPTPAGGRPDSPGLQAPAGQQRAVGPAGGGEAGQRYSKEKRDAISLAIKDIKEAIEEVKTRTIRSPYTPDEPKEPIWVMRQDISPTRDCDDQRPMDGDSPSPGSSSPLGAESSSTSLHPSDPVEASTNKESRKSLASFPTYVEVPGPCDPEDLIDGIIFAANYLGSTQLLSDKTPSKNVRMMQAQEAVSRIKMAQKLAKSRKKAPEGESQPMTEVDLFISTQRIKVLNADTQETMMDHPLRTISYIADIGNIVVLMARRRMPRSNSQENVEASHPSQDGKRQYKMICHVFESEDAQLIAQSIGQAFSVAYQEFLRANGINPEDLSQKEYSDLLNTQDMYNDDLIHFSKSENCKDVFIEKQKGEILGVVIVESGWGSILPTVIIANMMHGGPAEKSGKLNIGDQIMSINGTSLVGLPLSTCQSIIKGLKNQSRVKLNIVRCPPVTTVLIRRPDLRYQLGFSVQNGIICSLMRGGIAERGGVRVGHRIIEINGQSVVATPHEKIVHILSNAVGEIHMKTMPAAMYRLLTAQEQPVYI
T5 sequence (P41145 whole entry): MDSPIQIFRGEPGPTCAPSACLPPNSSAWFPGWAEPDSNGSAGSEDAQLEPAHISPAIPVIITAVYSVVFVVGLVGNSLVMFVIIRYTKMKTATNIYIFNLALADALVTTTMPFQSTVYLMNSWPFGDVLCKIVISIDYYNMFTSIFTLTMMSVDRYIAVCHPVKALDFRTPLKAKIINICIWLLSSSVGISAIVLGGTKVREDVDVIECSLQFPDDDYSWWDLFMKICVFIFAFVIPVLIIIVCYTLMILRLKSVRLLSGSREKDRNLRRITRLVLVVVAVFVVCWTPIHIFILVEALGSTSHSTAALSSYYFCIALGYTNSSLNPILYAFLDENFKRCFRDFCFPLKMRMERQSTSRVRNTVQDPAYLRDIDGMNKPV
CAAX prenyl protease 1, sequence (P47154 whole entry): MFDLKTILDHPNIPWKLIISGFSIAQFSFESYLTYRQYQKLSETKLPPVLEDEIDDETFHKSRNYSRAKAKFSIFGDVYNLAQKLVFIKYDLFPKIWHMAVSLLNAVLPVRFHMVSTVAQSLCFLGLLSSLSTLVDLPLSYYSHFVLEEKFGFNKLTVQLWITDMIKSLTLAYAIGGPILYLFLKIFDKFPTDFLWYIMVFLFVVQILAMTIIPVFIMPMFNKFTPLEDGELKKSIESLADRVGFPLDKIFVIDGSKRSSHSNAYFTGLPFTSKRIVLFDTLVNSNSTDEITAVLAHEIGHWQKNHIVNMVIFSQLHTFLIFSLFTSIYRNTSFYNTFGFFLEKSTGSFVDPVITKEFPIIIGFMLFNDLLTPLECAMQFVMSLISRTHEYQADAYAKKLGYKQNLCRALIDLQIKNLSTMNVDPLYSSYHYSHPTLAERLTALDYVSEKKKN
Mu-type opioid receptor, sequence (P35372 whole entry): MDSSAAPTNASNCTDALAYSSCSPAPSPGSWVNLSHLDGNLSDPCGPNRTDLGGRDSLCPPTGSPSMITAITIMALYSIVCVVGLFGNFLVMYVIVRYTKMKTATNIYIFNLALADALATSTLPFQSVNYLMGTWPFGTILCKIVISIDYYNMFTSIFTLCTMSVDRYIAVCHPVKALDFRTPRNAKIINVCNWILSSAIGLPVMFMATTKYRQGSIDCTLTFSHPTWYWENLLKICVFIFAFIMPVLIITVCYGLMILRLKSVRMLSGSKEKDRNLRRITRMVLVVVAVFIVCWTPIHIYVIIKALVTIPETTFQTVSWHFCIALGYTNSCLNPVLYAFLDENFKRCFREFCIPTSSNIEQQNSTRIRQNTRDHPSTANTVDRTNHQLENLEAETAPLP
Trypsin, sequence (P00761 whole entry): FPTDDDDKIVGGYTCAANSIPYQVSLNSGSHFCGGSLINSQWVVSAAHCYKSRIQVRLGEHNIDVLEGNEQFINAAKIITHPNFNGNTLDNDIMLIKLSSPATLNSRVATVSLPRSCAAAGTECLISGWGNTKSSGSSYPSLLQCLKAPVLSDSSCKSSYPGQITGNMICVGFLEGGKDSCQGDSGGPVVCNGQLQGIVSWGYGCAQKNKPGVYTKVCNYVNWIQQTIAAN

COc1cc(NC(=O)c2cccc(F)c2)ccc1NC(=O)c1cc2ccccc2o1
CC50 [1]: > 50 µM (active)
IC50 [2]: 6.19 µM (active)
IC50 [3]: > 50 µM (inactive)

COC(=O)Cc1c(C)c2ccc(OCc3nn[nH]n3)c(C)c2oc1=O
AC50 (Trypsin): 21.3 µM (active)
AC50 (CAAX prenyl protease 2 [4]): 24.6 µM (active)
AC50 (CAAX prenyl protease 1): 12.6 µM (active)
AC50 (CAAX prenyl protease 2 [5]): 29.6 µM (active)

COc1ccccc1OCCOc1ccc(/C=C2/C(=N)N3OC(C)=CC3=NC2=O)cc1OC
IC50 [2]: 0.212 µM (active)
IC50 [3]: > 50 µM (inactive)
AC50 (Cytochrome P450 2C19): 2 µM (inconclusive)
AC50 (Cytochrome P450 2D6): 6.31 µM (inconclusive)

CC(OC(=O)c1cc2c(ccc3ccccc32)oc1=O)c1nc2ccccc2s1 (stereo not drawn)
IC50 [6]: > 32 µM (inactive)
EC50 (Mu-type opioid receptor): > 32 µM (inactive)
EC50 [7]: > 32 µM (inactive)
IC50 [8]: 10.5 µM (active)
EC50 (Beta-galactosidase): > 31.5 µM (inactive)
IC50 [9]: > 32 µM
IC50 (H9c2): > 79 µM (inactive)

O=C(Cn1c2ccccc2c(=O)c2ccccc21)Nc1ccccc1F
AC50 (CAAX prenyl protease 1): 6.04 µM (active)
AC50 (CAAX prenyl protease 2 [5]): 0.345 µM (active)

Cc1c(C(=O)Nc2ccc(F)cc2)cn2c(nc3ccccc32)c1C#N
IC50 (SUMO-activating enzyme): 41.7 µM (active)

CCOC(=O)Cn1c2ccccc2c2nc3ccccc3nc21
IC50 (SUMO-activating enzyme): 29.6 µM (active)
EC50 [10]: 107 µM (active)

O=C(Nc1ccc(N2CCN(C(=O)c3ccco3)CC2)c(Cl)c1)c1cccs1
CC50 [11]: > 40 µM (active)
CC50 [12]: > 20 µM (active)

O=C(NNC1=Nc2ccccc2SC1)c1ccc(Cl)cc1
IC50 [6]: > 32 µM (inactive)
EC50 [13]: 11 µM (active)
EC50 (Mu-type opioid receptor): > 32 µM (inactive)
EC50 [7]: > 32 µM (inactive)
EC50 [14]: 18.4 µM (active)
EC50 [15]: 8.56 µM (active)
IC50 [8]: 10.5 µM (active)
EC50 (Beta-galactosidase): > 31.5 µM (inactive)
IC50 [9]: > 32 µM

CN1CCN(c2ncc3nc(-c4ccc(Cl)cc4)c(=O)n(C)c3n2)CC1
AC50 (Cytochrome P450 3A4): inconclusive

O=C(N/N=C/c1ccc(O)cc1)c1ccc(-c2csc(Nc3ccc(Cl)cc3)n2)cc1
IC50 [16]: > 100 µM (inactive)
IC50 [17]: > 100 µM (inactive)
IC50 [18]: 24.1 µM (active)
IC50 [19]: > 100 µM (inactive)
IC50 [20]: > 100 µM (inactive)

Sc1nnc(-c2cccnc2)n1/N=C/c1cccs1
IC50 [21]: > 100 µM (inactive)
IC50 [22]: 2.75 µM (active)
IC50 [23]: 58 µM (active)
